Columns and labels:
ACSS2 [1] = target: T1, ACSS2 (Homo sapiens, UniProt Q9NR19); experiment: cell-based
Protocol: The cellular activity of ACSS2 was based on tracing the incorporation of carbons from ^13C-Acetate into fatty-acids.
BT474/MDA-MB-468 cells growing in DMEM+25 mM D-glucose+1 mM sodium pyruvate+10% FBS+2 mM glutamine were plated in 12-well plates at 0.4×10^6 cells/well. The cells were then incubated at CO2 incubator for 24 hrs at hypoxic conditions (1% O2) before treated with compounds. At day 2, the medium was replaced to DMEM medium containing 15 mM Glucose, 1 mM Pyruvate, 0.65 mM Glutamine, 1% Dialyzed serum, 3.5 ug/ml Biotin, 0.2 mM ^13C-Acetate and various concentrations of the compounds. The cells were incubated for 5 hours at CO2 incubator in hypoxic conditions (1% O2). At the end of the 5 hours' incubation, the cells were washed twice with cold PBS, harvested in 1 ml PBS and transfer into V-shaped HPLC glass vials and centrifuge for 10 min at 600 g at 4 C. The supernatant was removed, and the cells' pellets were stored at −80° C. until taken for saponification.
The cells pellets were resuspended with 0.5 ml of the 90% Methanol, 10% H2O, 0.3M NaOH mixture and incubated at 80° C. for 60 min. Following the incubation, 50 μl formic acid and 0.4 ml hexane were added and the mixture was vortexed for 2 minutes. The vials were left few minutes for phases separation and then 200 μl of the top hexane phase extracted to a new glass vial. The hexane was dried under nitrogen and reconstituted in 100 μl of Methanol: Acetonitrile 5:3 mixture. The solution transferred to Eppendorf tubes, spun down at 17000G for 20 min and transferred to LC-MS vials.
The analysis was performed with Thermo Q Exactive mass spectrometer with HESI probe and Dionex Ultimate 3000 UHPLC system. The separations were performed on Phenomenex Kintex 2.6u XB-C18 100A 150×2.10 mm column by injecting 5 ul of each sample. The chromatography started with a linear gradient from 85% to 100% of organic solvent (Methanol: Acetonitrile 1:1) versus 10 mM Ammonium Acetate buffer pH 4.7 for 3.5 minutes, followed by 4.5 minutes of isocratic 100% organic solvent and then 3 minutes of isocratic initial conditions, at a flow rate of 0.3 ul/min. The MS source conditions that were used: capillary temperature 325° C., sheath flow 25, aux flow 15, spray voltage 3.8 kV, aux temperature 300° C. The data collected from Negative ion mode at resolution of 70000 at Full-MS mode in 75-1000 m/z range.
The analysis of ^13C acetate incorporation into fatty acids (palmitate, myristate and stearate) performed on TraceFinder 3.2.512.0. The negative control areas and ^13C isotopic theoretical natural abundance were subtracted from the samples areas. Total ^13C incorporation for each fatty-acid (palmitate, myristate and stearate) was calculated and presented as percentage of the total amount.

ACSS2 [2] = target: T2, ACSS2 (Mus musculus, UniProt Q9QXG4); experiment: PK-PD study: inhibition of 13C incorporation into fatty-acid (palmitate) in vivo; conditions: C57BL/6J mice, 50 mg/kg IP, 13C-ETOH PO at 1 h, plasma at 3 h, read-out: inhibition of 13C-Acetate incorporation into fatty-acids (palmitate)
T2 construct: from tissue; host or cells: whole animal, C57BL/6J mice; plasma palmitate read out
T2 sequence (Q9QXG4 whole entry): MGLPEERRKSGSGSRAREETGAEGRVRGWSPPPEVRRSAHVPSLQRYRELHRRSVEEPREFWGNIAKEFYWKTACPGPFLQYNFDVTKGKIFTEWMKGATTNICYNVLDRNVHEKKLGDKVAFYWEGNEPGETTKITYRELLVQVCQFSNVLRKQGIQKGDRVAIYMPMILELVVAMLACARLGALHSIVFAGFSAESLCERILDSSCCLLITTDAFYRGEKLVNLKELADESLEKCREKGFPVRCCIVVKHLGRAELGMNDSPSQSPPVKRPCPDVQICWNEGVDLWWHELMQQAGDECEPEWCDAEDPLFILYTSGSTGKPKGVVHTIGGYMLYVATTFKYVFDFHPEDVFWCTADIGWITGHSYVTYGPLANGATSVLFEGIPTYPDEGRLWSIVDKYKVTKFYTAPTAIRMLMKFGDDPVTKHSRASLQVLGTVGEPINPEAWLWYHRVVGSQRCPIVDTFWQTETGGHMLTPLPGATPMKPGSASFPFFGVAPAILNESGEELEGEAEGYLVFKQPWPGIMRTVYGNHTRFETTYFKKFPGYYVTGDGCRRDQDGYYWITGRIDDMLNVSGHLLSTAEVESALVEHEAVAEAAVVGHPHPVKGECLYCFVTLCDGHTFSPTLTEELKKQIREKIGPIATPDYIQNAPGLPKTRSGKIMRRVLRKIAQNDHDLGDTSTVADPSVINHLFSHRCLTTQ
Protocol: Overnight fasted Female C57BL/6J mice (3n/group) were dosed at time=0 h with the indicated compound at 50 mg/kg IP (vehicle: 20% Solutol, 80% 0.2M Phosphate buffer pH 7.0). At time 1 h, 13C-ETOH (2.25 gr/kg 13C-ETOH dissolved in saline to a total volume of 10 ml/kg) were administrated by PO. At time 3 h plasma samples were taken for Fatty-acid analysis by Mass-spectrometry. The incorporation of ^13C into palmitate was done by Mass-spectrometry after saponification of the samples and the percent incorporation of ^13C was calculated.

ACSS2 [3] = target: T1, ACSS2; experiment: Acyl-CoA synthetases selectivity panel: ACSS2; assay type: biochemical; parameters: purchased Cusabio, China; conditions: human recombinant protein, substrate acetate, AMP readout by HPLC; read-out: HPLC based activity assays IC50 (UM) ACSS2
Excerpt: (§1) The biochemical assays for testing the selectivity of the compounds according to this invention, were done using human recombinant proteins (Cusabio, China). The readout of the assays was AMP levels, the […] of the reactions, by HPLC method. The acyl substrates (Sigma-Aldrich) of the assays were as followed: ACSS1/ACSS2—Acetate, AACS-Acetoacetyl, ACSF2—Octanoate and ACSL5—Palmitate. The protein in this panel include ACSS1, the closest homolog of ACSS2, in addition to representative short/medium/long chain acyl-CoA syntatases.

ACSL5 = target: T3, ACSL5 (Homo sapiens, UniProt Q9ULC5); experiment: Acyl-CoA synthetases selectivity panel: ACSL5; assay type: biochemical; conditions: human recombinant protein, substrate palmitate, AMP readout by HPLC; read-out: HPLC based activity assays IC50 (UM) ACSL5
T3 construct: purchased Cusabio, China
T3 sequence (Q9ULC5 1-683): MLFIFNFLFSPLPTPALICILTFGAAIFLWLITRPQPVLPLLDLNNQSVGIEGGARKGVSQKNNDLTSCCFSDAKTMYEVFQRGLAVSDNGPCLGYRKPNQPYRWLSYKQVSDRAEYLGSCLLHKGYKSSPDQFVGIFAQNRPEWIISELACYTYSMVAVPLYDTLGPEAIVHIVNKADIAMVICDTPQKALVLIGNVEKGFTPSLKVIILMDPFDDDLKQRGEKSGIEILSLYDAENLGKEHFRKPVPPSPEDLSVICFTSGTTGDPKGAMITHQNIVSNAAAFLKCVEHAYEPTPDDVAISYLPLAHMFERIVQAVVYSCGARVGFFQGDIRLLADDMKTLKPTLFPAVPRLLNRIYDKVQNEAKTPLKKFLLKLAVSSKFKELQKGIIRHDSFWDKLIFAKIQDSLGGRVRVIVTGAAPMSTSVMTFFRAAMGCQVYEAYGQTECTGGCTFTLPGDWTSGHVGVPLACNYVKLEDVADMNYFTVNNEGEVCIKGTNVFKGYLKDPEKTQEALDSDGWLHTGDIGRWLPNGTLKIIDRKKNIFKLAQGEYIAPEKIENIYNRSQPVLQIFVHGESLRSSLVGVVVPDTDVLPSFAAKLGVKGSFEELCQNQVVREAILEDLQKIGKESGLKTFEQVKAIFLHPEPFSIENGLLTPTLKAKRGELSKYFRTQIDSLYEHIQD
Excerpt: as §1

AACS = target: T4, AACS (Homo sapiens, UniProt Q86V21); experiment: Acyl-CoA synthetases selectivity panel: AACS; assay type: biochemical; conditions: human recombinant protein, substrate acetoacetyl, AMP readout by HPLC; read-out: HPLC based activity assays IC50 (UM) AACS
T4 construct: purchased Cusabio, China
T4 sequence (Q86V21 1-672): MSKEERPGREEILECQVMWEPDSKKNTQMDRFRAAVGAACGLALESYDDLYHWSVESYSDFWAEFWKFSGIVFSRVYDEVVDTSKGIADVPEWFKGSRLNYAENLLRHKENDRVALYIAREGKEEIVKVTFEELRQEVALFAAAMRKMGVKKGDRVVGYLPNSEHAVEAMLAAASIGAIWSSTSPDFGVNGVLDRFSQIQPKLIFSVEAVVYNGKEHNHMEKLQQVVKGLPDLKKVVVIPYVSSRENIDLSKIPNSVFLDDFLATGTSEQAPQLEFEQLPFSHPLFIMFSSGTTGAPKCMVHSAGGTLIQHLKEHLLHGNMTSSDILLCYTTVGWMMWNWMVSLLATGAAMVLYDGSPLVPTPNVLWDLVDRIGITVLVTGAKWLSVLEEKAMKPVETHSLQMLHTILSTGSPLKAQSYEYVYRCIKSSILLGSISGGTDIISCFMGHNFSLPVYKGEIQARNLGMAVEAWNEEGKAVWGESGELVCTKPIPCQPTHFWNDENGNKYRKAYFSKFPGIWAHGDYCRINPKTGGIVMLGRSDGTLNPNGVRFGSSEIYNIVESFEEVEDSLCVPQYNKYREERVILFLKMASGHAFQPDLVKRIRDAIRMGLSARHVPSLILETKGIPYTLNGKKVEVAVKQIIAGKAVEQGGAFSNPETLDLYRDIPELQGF
Excerpt: as §1

ACSF2 = target: T5, ACSF2 (Homo sapiens, UniProt Q96CM8); experiment: Acyl-CoA synthetases selectivity panel: ACSF2; assay type: biochemical; conditions: human recombinant protein, substrate octanoate, AMP readout by HPLC; read-out: HPLC based activity assays IC50 (UM) ACSF2
T5 construct: purchased Cusabio, China
T5 sequence (Q96CM8 42-615): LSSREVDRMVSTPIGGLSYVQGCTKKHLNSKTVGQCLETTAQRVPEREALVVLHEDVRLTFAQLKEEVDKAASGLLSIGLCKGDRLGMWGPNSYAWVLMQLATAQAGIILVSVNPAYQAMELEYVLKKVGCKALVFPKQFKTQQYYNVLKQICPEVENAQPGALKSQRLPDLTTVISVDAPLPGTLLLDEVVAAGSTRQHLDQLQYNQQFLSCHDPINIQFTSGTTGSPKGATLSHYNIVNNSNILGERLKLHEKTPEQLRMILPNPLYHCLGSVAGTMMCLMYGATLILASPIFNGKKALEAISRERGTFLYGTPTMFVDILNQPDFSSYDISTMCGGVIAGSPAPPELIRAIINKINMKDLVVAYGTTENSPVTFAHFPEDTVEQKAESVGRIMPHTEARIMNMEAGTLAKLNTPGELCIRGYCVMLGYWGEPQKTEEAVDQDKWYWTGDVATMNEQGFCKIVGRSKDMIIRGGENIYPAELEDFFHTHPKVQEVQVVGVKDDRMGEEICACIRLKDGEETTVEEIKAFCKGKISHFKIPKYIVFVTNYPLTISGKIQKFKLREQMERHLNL
Excerpt: as §1

ACSS1 = target: T6, ACSS1 (Homo sapiens, UniProt Q9NUB1); experiment: Acyl-CoA synthetases selectivity panel: ACSS1; assay type: biochemical; conditions: human recombinant protein, substrate acetate, AMP readout by HPLC; read-out: HPLC based activity assays IC50 (UM) ACSS1
T6 construct: purchased Cusabio, China
T6 sequence (Q9NUB1 38-689): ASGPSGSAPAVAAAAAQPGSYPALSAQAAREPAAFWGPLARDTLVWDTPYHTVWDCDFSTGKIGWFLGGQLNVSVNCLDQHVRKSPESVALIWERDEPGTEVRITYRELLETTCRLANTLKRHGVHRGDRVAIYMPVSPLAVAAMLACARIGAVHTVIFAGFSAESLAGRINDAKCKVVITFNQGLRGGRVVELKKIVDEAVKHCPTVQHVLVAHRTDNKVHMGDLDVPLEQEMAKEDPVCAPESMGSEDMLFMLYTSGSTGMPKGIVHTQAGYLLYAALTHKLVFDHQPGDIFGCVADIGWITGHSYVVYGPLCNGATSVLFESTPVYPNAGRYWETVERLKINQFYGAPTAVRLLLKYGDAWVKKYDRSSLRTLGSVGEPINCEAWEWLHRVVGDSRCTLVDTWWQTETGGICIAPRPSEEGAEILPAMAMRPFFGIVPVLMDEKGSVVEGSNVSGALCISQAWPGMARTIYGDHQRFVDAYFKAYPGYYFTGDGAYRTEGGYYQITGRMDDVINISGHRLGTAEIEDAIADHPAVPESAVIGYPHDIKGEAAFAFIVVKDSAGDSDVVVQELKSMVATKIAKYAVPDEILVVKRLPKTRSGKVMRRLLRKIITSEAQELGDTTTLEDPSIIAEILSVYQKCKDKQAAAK
Excerpt: as §1

[4] = tested on: MDA-MB-468 breast cancer cells xenograft; experiment: In-vivo efficacy study in MDA-MB-468 breast cancer cells xenograft; conditions: 100 mg/kg orally once daily; female NMRI nude mice
Protocol: An in-vivo efficacy study was carried out by Charles-River Laboratories at the Freiburg, Germany site.
Tumor fragments from Breast cancer cell line MDA-MB-468 passaged as subcutaneous xenograft were subcutaneously implanted into female NMRI nude mice (Crl:NMRI-Foxnlnu). The animals were randomized into groups (n=10) when tumors volume reached 50 to 250 mm3. […] Body weights and tumor volume [mm3] by caliper were measured twice weekly.

HCT116 = experiment: In-vivo model that does not utilize acetate (HCT116); conditions: daily oral dosing

T1 sequence (Q9NR19 whole entry): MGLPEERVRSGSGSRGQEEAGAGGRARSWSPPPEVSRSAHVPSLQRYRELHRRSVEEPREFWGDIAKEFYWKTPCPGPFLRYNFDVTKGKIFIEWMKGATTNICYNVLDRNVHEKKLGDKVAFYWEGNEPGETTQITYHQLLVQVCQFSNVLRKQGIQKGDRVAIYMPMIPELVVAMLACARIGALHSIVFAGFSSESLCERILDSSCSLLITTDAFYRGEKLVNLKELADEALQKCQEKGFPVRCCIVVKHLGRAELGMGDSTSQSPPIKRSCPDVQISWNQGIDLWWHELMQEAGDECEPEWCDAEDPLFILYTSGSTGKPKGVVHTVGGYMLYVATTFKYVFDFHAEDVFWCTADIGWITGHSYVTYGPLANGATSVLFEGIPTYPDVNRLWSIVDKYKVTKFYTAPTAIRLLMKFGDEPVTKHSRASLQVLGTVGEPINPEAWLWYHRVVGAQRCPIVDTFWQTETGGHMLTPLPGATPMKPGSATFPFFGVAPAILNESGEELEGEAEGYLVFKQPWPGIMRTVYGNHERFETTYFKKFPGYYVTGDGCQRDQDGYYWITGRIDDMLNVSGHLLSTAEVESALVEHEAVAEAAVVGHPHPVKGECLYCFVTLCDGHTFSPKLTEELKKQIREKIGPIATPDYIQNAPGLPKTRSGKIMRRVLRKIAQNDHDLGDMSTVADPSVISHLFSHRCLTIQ

IC50 (ACSS2 [1]) [µM] | IC50 (ACSS2 [3]) [µM] | IC50 (ACSL5) [µM] | IC50 (AACS) [µM] | IC50 (ACSF2) [µM] | IC50 (ACSS1) [µM] | SMILES | other results
0.1 to 1 |  |  |  |  |  | COC(=O)c1cccc(N2N=C(C)C(C(=O)Nc3cccc(-c4cnccn4)c3)C2=O)c1 (centres unmarked) [compound 164] | 
 |  |  |  |  |  | CC1=NN(c2ccc(OC(F)F)c(-c3cnccn3)c2)C(=O)C1C(=O)Nc1cccc(C(C)(F)F)c1 (centres unmarked) [compound 328, N-[3-(1,1-difluoroethyl)phenyl]-1-[4-(difluoromethoxy)-3-pyrazin-2-yl-phenyl]-3-methyl-5-oxo-4H-pyrazole-4-carboxamide] | inhibition at 50 mg/kg (ACSS2 [2]): 87%
 | < 0.001 | 45 | 19 | 28 | 10 to 100 | COC(=O)c1cccc(N2N=C(C)C(C(=O)Nc3cccc(-c4ccco4)c3)C2=O)c1 (centres unmarked) [compound 269, methyl 3-(4-((3-(furan-2-yl)phenyl)carbamoyl)-3-methyl-5-oxo-4,5-dihydro-1H-pyrazol-1-yl)benzoate] | 
 |  |  |  |  |  | CC1=NN(c2ccc(OC(F)F)cc2)C(=O)C1C(=O)Nc1cccc(C(C)(F)F)c1 (centres unmarked) [compound 298, N-(3-(1,1-difluoroethyl)phenyl)-1-(4-(difluoromethoxy)phenyl)-3-methyl-5-oxo-4,5-dihydro-1H-pyrazole-4-carboxamide] | tumor growth in MDA-MB-468 xenograft model [4]: significant tumor growth delay; efficacy in a model that does not utilize acetate (HCT116) (HCT116): no efficacy
 | 0.001 to 0.01 | > 100 | 149 | 160 | 10 to 100 | CC1=NN(c2ccccc2)C(=O)C1C(=O)Nc1cccc(C(C)(F)F)c1 (centres unmarked) [compound 141] | 
 |  |  |  |  |  | COc1ccc(N2N=C(C)C(C(=O)Nc3cccc(C(C)(F)F)c3)C2=O)cn1 (centres unmarked) [compound 242, N-(3-(1,1-difluoroethyl)phenyl)-1-(6-methoxypyridin-3-yl)-3-methyl-5-oxo-4,5-dihydro-1H-pyrazole-4-carboxamide] | inhibition at 50 mg/kg (ACSS2 [2]): 84%
> 1 |  |  |  |  |  | CC1=NN(c2cccc(C(F)(F)F)c2)C(=O)C1C(=O)Nc1cccc(-c2cnccn2)c1 (centres unmarked) [compound 166] | 
 | < 0.001 | 35 | 64 | 51 | 10 to 100 | COc1ccc(N2N=C(C)C(C(=O)Nc3cccc(-c4ccco4)c3)C2=O)cc1 (centres unmarked) [compound 266, N-(3-(furan-2-yl)phenyl)-1-(4-methoxyphenyl)-3-methyl-5-oxo-4,5-dihydro-1H-pyrazole-4-carboxamide] | 
 |  |  |  |  |  | CC1=NN(c2ccc(OC(F)(F)F)cc2)C(=O)C1C(=O)Nc1cc(C(C)(F)F)cs1 (centres unmarked) [compound 296, N-(4-(1,1-difluoroethyl)thiophen-2-yl)-3-methyl-5-oxo-1-(4-(trifluoromethoxy)phenyl)-4,5-dihydro-1H-pyrazole-4-carboxamide] | tumor growth in MDA-MB-468 xenograft model [4]: inhibits tumor growth
0.1 to 1 |  |  |  |  |  | COC(=O)c1cccc(N2N=C(C)C(C(=O)Nc3cccc(-c4ncc[nH]4)c3)C2=O)c1 (centres unmarked) [compound 167, Methyl 3-(4-((3-(1H-imidazol-2-yl)phenyl)carbamoyl)-3-methyl-5-oxo-4,5-dihydro-1H-pyrazol-1-yl)benzoate] | 
> 1 |  |  |  |  |  | CC1=NN(c2ccccc2)C(=O)C1C(=O)Nc1cccc(C(=O)N(C)C)c1 (centres unmarked) [compound 220] | 
0.1 to 1 |  |  |  |  |  | CC(=O)Cc1cccc(NC(=O)C2C(=O)N(c3ccccc3)N=C2C)c1 (centres unmarked) [compound 145] | 

SMILES | IC50 (ACSS2 [1]) [µM] | IC50 (ACSS2 [3]) [µM] | IC50 (ACSL5) [µM] | IC50 (AACS) [µM] | IC50 (ACSF2) [µM] | IC50 (ACSS1) [µM] | other results
CC1=NN(c2ccccc2)C(=O)C1C(=O)Nc1cccc(-c2ccco2)c1 (centres unmarked) [compound 108] |  | < 0.001 | 76 | 84 | 36 | 10 to 100 | 
CC1=NN(c2ccc(C(F)(F)F)cc2)C(=O)C1C(=O)Nc1cccc(C(C)(F)F)c1 (centres unmarked) [compound 264, N-(3-(1,1-difluoroethyl)phenyl)-3-methyl-5-oxo-1-(4-(trifluoromethyl)phenyl)-4,5-dihydro-1H-pyrazole-4-carboxamide] |  | 0.001 to 0.01 | 115 | 52 | 43 | 1 to 10 | 

Reference: patent US20250186433A1, “ACSS2 INHIBITORS AND METHODS OF USE THEREOF” (EpiVario, Inc., priority 2017, published 2025)
